What all share (type): cell-based
Test [1] concerns the target T1, Nuclear factor NF-kappa-B complex (Homo sapiens) (UniProt Q00653+P19838+Q04206). Nature of the test: Inhibition of LPS-induced NF-kappaB (unknown origin) expressed in HEK293 cells at 10 ug/ml after 4 hrs by luciferase reporter gene assay relative to LPS-treated control. A general note: Reporter assays use an easily measured gene product as a stand-in for the process of interest.

Test [2] concerns the target T1, Nuclear factor NF-kappa-B complex (Homo sapiens). The test can be described thus: Inhibition of LPS-induced NF-kappaB (unknown origin) expressed in HEK293 cells at 1 ug/ml after 4 hrs by luciferase reporter gene assay relative to LPS-treated control.
Test [3] shares this target. Nature of the test: Inhibition of LPS-induced NF-kappaB (unknown origin) expressed in HEK293 cells at 100 ug/ml after 4 hrs by luciferase reporter gene assay relative to LPS-treated control.

T1 sequence (P19838 whole entry, looked up): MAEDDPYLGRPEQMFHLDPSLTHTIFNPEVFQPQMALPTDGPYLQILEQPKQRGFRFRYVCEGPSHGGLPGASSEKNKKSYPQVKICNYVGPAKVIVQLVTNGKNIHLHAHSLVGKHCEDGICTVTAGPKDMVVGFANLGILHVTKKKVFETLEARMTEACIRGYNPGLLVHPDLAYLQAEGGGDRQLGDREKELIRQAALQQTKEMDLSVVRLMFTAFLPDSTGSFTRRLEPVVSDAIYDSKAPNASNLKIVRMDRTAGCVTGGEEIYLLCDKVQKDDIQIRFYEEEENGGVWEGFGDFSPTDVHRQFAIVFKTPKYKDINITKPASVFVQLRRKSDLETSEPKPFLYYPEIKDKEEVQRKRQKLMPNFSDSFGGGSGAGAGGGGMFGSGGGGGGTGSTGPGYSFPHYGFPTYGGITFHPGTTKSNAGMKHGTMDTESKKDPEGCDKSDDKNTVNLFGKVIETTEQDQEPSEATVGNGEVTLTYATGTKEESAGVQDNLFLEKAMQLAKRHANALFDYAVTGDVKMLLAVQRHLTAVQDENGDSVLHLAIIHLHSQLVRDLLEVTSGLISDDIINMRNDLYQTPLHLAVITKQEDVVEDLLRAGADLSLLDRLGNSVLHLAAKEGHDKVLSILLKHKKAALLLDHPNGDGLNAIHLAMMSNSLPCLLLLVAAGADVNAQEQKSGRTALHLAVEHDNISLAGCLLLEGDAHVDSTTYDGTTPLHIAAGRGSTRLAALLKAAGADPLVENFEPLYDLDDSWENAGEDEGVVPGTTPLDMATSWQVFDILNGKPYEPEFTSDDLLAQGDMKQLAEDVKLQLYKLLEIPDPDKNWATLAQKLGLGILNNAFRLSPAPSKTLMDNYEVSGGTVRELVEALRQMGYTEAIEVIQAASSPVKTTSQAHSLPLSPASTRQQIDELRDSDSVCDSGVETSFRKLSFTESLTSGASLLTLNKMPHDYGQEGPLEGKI
T1 sequence (Q00653 whole entry, looked up): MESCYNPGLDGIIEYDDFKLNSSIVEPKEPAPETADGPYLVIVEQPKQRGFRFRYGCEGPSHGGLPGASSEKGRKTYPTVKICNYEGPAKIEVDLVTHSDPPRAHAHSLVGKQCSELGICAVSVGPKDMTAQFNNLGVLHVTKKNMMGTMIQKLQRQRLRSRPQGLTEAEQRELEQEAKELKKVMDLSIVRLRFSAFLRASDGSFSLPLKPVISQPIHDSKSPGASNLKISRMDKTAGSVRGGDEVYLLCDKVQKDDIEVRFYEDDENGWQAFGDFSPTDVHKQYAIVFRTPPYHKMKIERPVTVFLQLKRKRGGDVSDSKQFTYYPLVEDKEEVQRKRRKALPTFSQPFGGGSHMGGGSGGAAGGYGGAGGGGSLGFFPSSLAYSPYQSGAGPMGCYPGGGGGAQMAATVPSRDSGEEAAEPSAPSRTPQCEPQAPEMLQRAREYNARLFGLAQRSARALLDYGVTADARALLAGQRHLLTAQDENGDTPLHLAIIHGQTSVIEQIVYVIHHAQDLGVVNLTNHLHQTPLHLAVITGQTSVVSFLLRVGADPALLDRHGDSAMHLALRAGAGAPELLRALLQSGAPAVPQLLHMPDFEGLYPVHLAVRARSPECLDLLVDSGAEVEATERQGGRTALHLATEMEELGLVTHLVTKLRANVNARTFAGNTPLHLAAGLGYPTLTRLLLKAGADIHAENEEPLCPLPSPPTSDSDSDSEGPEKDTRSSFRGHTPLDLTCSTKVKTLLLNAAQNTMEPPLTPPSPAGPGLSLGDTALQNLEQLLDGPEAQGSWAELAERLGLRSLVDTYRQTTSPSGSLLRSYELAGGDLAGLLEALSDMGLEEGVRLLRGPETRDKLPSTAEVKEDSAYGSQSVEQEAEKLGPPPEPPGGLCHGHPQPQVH
T1 sequence (Q04206 whole entry, looked up): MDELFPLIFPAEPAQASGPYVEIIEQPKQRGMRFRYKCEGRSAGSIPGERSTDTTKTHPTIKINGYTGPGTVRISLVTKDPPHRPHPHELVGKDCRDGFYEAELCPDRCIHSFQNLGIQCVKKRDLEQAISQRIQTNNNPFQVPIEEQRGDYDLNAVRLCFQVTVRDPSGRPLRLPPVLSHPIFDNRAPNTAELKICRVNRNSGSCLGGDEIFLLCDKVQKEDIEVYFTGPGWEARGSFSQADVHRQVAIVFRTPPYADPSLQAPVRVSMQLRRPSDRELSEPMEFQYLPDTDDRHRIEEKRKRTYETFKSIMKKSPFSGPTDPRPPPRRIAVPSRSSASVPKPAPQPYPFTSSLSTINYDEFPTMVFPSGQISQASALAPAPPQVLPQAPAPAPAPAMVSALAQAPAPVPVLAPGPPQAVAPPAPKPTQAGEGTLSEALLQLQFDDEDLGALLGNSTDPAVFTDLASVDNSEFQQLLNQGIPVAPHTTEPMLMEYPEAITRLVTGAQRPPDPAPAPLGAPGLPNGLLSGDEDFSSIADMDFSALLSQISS

For the compound `CC/C(O)=C1/C(=O)O[C@@H]2[C@@]3(O)[C@@H](OC(C)=O)[C@@]4(C)C[C@]35OC3(C)O[C@]26[C@H]1[C@](C)([C@@H](OC(C)=O)c1ccoc1)[C@@H](OC(C)=O)[C@@H](OC(C)=O)[C@]6(O3)[C@]5(COC(C)=O)[C@H]4CC(=O)OC`, the figures for the Ratio in test [1], in test [2] and in test [3] were 0.27, 0.13 and 0.45, respectively.

As to `COC(=O)[C@H](OC(C)=O)[C@H]1[C@]2(C)C[C@]3(O)[C@@](OC(=O)C(C)C)([C@H]4OC5(C)O[C@@]6([C@H](O)[C@H](O)[C@]78C[C@]7([C@@H](OC(C)=O)C(=O)O[C@H]8c7ccoc7)[C@@]46O5)[C@]13C)[C@H]2OC(C)=O`, the results for the Ratio in test [1], in test [2] and in test [3] were 0.32, 0.09 and 0.44, respectively.

For the origin of these results see ChEMBL document CHEMBL3351801, “Phragmalin-type limonoids with NF-κB inhibition from Chukrasia tabularis var. velutina” (Bioorg Med Chem Lett, 2014).
